The source of these data is patent US20190167619A1, “PHARMACEUTICAL FORMULATIONS AND THEIR USE” (SIGNUM BIOSCIENCES, INC., priority 2016, published 2019).

A short description of series [1]: Stability of a formulation comprising the disodium salt after storage at 5° C., HPLC (Example 3). In kind it is physicochemical. On the procedure:
The stability of a formulation comprising the disodium salt of 4-(((R)-1-carboxy-2-(((2E,6E)-3,7,11-trimethyldodeca-2,6,10-trien-1-yl)thio)ethyl)amino)-4-oxobutanoic acid was determined after storage at 5° C. for a period of 1 month, 2 months, 3 months, 6 months, 9 months, 12 months, 18 months, and 24 months. In each case, the percentage of 4-(((R)-1-carboxy-2-(((2E,6E)-3,7,11-trimethyldodeca-2,6,10-trien-1-yl)thio)ethyl)amino)-4-oxobutanoic acid remaining at each time point was determined by use of HPLC. Each of the percentages in the table below are expressed at the weight percentage of the component as compared to the total weight of the composition.

Series [2] can be described thus: Stability of a formulation comprising the disodium salt after storage at 25° C., HPLC (Example 2). In kind it is physicochemical. How it is done: The stability of a formulation comprising the disodium salt of 4-(((R)-1-carboxy-2-(((2E,6E)-3,7,11-trimethyldodeca-2,6,10-trien-1-yl)thio)ethyl)amino)-4-oxobutanoic acid was determined after storage at 25° C. for a period of 4 months, 6 months, 9 months and 12 months. […]

The structures appear in SMILES notation.

With `COC(=O)c1ccc(O)cc1` [Methylparaben], the “weight percentage of the component as compared to the total weight of the composition” value (“weight percentage of the component” below) is 0.17 weight percentage in series [1] (1 month, storage at 5° C.); 0.17 weight percentage in series [1] (2 months, storage at 5° C.); 0.17 weight percentage in series [1] (3 months, storage at 5° C.); 0.18 weight percentage in series [1] (6 months, storage at 5° C.); 0.17 weight percentage in series [1] (9 months, storage at 5° C.); 0.17 weight percentage in series [1] (12 months, storage at 5° C.). Also, the “weight percentage of the component” value in series [1] (18 months, storage at 5° C.) is 0.17 weight percentage; in series [1] (24 months, storage at 5° C.), 0.15 weight percentage; in series [1] (Initial), 0.17 weight percentage.
In the case of `CC(C)=CCC/C(C)=C/CC/C(C)=C/CSC[C@H](NC(=O)CCC(=O)O)C(=O)O` [4-(((R)-1-carboxy-2-(((2E,6E)-3,7,11-trimethyldodeca-2,6,10-trien-1-yl)thio)ethyl)amino)-4-oxobutanoic acid], the “% age of sulfoxide of 4-(((R)-1-carboxy-2-(((2E,6E)-3,7,11-trimethyldodeca-2,6,10-trien-1-yl)thio)ethyl)amino)-4-oxobutanoic acid” value was determined as 0.037% in series [2] (Initial); 0.031% in series [2] (after 1 month, storage at 25° C.); 0.113% in series [2] (after 3 months, storage at 25° C.); 0.053% in series [2] (after 6 months, storage at 25° C.); 0.134% in series [2] (after 9 months, storage at 25° C.).
For `CCCOC(=O)c1ccc(O)cc1` [Propylparaben], the “weight percentage of the component” value in series [1] (1 month, storage at 5° C.) is recorded as 0.032 weight percentage; in series [1] (2 months, storage at 5° C.), 0.032 weight percentage; in series [1] (3 months, storage at 5° C.) it was 0.033 weight percentage; in series [1] (6 months, storage at 5° C.), 0.032 weight percentage; in series [1] (9 months, storage at 5° C.) it was 0.033 weight percentage; in series [1] (12 months, storage at 5° C.) it was 0.032 weight percentage. The “weight percentage of the component” value in series [1] (18 months, storage at 5° C.) is listed as 0.033 weight percentage; in series [1] (24 months, storage at 5° C.), 0.030 weight percentage; in series [1] (Initial), 0.034 weight percentage.
